According to US11230555B2, “Bicyclic RORγ modulators” (Escalier Biosciences B.V., priority 2018, dated 2022):

Molecular target: T1, RORγt (Homo sapiens, UniProt P51449)
T1 construct: purchased reporter-cell kit
T1 sequence (P51449 269-508 limits assumed): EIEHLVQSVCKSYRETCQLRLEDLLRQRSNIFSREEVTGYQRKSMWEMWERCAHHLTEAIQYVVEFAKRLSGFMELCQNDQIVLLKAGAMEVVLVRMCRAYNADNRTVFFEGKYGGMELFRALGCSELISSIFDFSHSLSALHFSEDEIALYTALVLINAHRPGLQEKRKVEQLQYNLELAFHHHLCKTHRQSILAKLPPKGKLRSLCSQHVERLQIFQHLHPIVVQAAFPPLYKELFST
Experiment: Gal4 ligand binding assay (RORγt Gal fusion reporter assay)
Assay type: cell-based
Settings: inverse agonists, luciferase reporter, 24h
Experimental: Compounds of the present invention were tested in a human RORγ ligand binding assay using a commercially available cell based ligand binding reporter assay in 96-well format (Cat #IB04001, INDIGO Biosciences, State College, Pa.). The N-terminal DNA binding domains (DBD) of the native RORγ and RORγt receptors have been substituted with that of the yeast GAL4-DBD and stably transfected in […] cells that also stably express luciferase under the regulation by upstream activation sequence of yeast Gal4. These cells constitutively express high level RORγ activity due to binding of endogenous co-factors. Both agonist and inverse agonist activity can be detected. The assay was performed according to kit manufacturer's instructions as follows. 10 mM compound stocks were diluted serially 1:3 with DMSO and further diluted with provided media to generate 10 titration points from 60 μM to 3 nM. These treatment conditions were added to the plates as 2× media in 100 μL volume. Each plate includes a positive control with 10 titration points as well as 6negative control wells with vehicle only, with final DMSO concentration of 0.2%. RORγ reporter cells were rapidly thawed and added to the plates in 100 μL volume. The plates were incubated for 24h in a 37° C. humidified 5% CO2incubator. Media was removed before the addition of room temperature luciferous detection substrate. After 5 minute incubation, relative light units (RLUs) were quantified using a plate reading luminometer. Data was normalized to positive control wells with only […]. Before establishing internal controls, ursolic acid was used as control.

| SMILES | IC50 |
| --- | --- |
| OC(c1ccc(-c2ccc(CN3CC4CCC(C3)N4Cc3ccncc3)cc2)cc1)(C(F)(F)F)C(F)(F)F [Example 1, 1,1,1,3,3,3-hexafluoro-2-(4′-((8-(pyridin-4-ylmethyl)-3,8-diazabicyclo[3.2.1]octan-3-yl)methyl)-[1,1′-biphenyl]-4-yl)propan-2-ol] | 50 to 250 nM |
| OC(c1ccc(-c2ccc(CN3C4CCC3CN(Cc3ccncc3)C4)cc2)cc1)(C(F)(F)F)C(F)(F)F [Example 2, 1,1,1,3,3,3-hexafluoro-2-(4′-((3-(pyridin-4-ylmethyl)-3,8-diazabicyclo[3.2.1]octan-8-yl)methyl)-[1,1′-biphenyl]-4-yl)propan-2-ol] | > 250 nM |
| CCc1cc(CN2CC3CCC(C2)N3S(C)(=O)=O)ncc1-c1ccc(C(O)(C(F)(F)F)C(F)(F)F)cc1C [Example 3, 2-(4-(4-ethyl-6-((8-(methylsulfonyl)-3,8-diazabicyclo[3.2.1]octan-3-yl)methyl)pyridin-3-yl)-3-methylphenyl)-1,1,1,3,3,3-hexafluoropropan-2-ol] | 50 to 250 nM |
| CCc1cc(CN2CC3CCC(C2)N3S(C)(=O)=O)ncc1-c1ccc(C(O)(C(F)(F)F)C(F)(F)F)cc1Cl [Example 4, 2-(3-chloro-4-(4-ethyl-6-((8-(methylsulfonyl)-3,8-diazabicyclo[3.2.1]octan-3-yl)methyl)pyridin-3-yl)phenyl)-1,1,1,3,3,3-hexafluoropropan-2-ol] | 50 to 250 nM |
| CCc1nc(CN2CC3CCC(C2)N3S(C)(=O)=O)ccc1-c1ccc(C(O)(C(F)(F)F)C(F)(F)F)cc1C [Example 5, 2-(4-(2-ethyl-6-((8-(methylsulfonyl)-3,8-diazabicyclo[3.2.1]octan-3-yl)methyl)pyridin-3-yl)-3-methylphenyl)-1,1,1,3,3,3-hexafluoropropan-2-ol] | > 250 nM |
| CCc1cc(CN2C3CCC2CN(S(C)(=O)=O)C3)ccc1-c1ccc(C(O)(C(F)(F)F)C(F)(F)F)cc1 [Example 6, 2-(2′-ethyl-4′-((3-(methylsulfonyl)-3,8-diazabicyclo[3.2.1]octan-8-yl)methyl)-[1,1′-biphenyl]-4-yl)-1,1,1,3,3,3-hexafluoropropan-2-ol] | 50 to 250 nM |
| CCc1cc(CN2C3CCC2CN(S(C)(=O)=O)C3)ccc1-c1ccc(C(O)(C(F)(F)F)C(F)(F)F)cc1Cl [Example 7, 2-(2-chloro-2′-ethyl-4′-((3-(methylsulfonyl)-3,8-diazabicyclo[3.2.1]octan-8-yl)methyl)-[1,1′-biphenyl]-4-yl)-1,1,1,3,3,3-hexafluoropropan-2-ol] | < 50 nM |
| CCc1cc(CN2[C@@H]3COC[C@H]2CN(S(C)(=O)=O)C3)ccc1-c1ccc(C(O)(C(F)(F)F)C(F)(F)F)cc1 [Example 8, 2-(2′-ethyl-4′-(((1R,5S)-7-(methylsulfonyl)-3-oxa-7,9-diazabicyclo[3.3.1]nonan-9-yl)methyl)-[1,1′-biphenyl]-4-yl)-1,1,1,3,3,3-hexafluoropropan-2-ol] | 50 to 250 nM |
| CS(=O)(=O)N1C2CCC1CN(c1cccc(-c3ccc(C(O)(C(F)(F)F)C(F)(F)F)cc3)c1)C2 [Example 9, 1,1,1,3,3,3-hexafluoro-2-(3′-(8-(methylsulfonyl)-3,8-diazabicyclo[3.2.1]octan-3-yl)-[1,1′-biphenyl]-4-yl)propan-2-ol] | > 250 nM |
| CCc1c(-c2ccc(C(O)(C(F)(F)F)C(F)(F)F)cc2Cl)cc(F)c(CN2CC3CCC(C2)N3S(C)(=O)=O)c1F [Example 10, 2-(2-chloro-2′-ethyl-3′,5′-difluoro-4′-((8-(methylsulfonyl)-3,8-diazabicyclo[3.2.1]octan-3-yl)methyl)-[1,1′-biphenyl]-4-yl)-1,1,1,3,3,3-hexafluoropropan-2-ol] | < 50 nM |
| CCc1c(F)c(CN2CC3CCC(C2)N3S(C)(=O)=O)cc(F)c1-c1ccc(C(O)(C(F)(F)F)C(F)(F)F)cc1Cl [Example 11, 2-(2-chloro-2′-ethyl-3′,6′-difluoro-4′-((8-(methylsulfonyl)-3,8-diazabicyclo[3.2.1]octan-3-yl)methyl)-[1,1′-biphenyl]-4-yl)-1,1,1,3,3,3-hexafluoropropan-2-ol] | < 50 nM |
| CCc1cc(CN2CC3COCC(C2)N3S(C)(=O)=O)ccc1-c1ccc(C(O)(C(F)(F)F)C(F)(F)F)cc1 [Example 12, 2-(2′-ethyl-4′-((9-(methylsulfonyl)-3-oxa-7,9-diazabicyclo[3.3.1]nonan-7-yl)methyl)-[1,1′-biphenyl]-4-yl)-1,1,1,3,3,3-hexafluoropropan-2-ol] | 50 to 250 nM |
| CCc1c(-c2ccc(C(O)(C(F)(F)F)C(F)(F)F)cc2F)cc(F)c(CN2CC3CCC(C2)N3S(C)(=O)=O)c1F [Example 13, 2-(2′-ethyl-2,3′,5′-trifluoro-4′-((8-(methylsulfonyl)-3,8-diazabicyclo[3.2.1]octan-3-yl)methyl)-[1,1′-biphenyl]-4-yl)-1,1,1,3,3,3-hexafluoropropan-2-ol] | < 50 nM |
| CCc1c(-c2ccc(C(O)(C(F)(F)F)C(F)(F)F)cc2)cc(F)c(CN2CC3CCC(C2)N3S(C)(=O)=O)c1F [Example 14] | < 50 nM |
| CC(C)c1cc(CN2CC3CCC(C2)N3S(C)(=O)=O)c(F)cc1-c1ccc(C(O)(C(F)(F)F)C(F)(F)F)cc1Cl [Example 15, 2-(2-chloro-5′-fluoro-2′-isopropyl-4′-((8-(methylsulfonyl)-3,8-diazabicyclo[3.2.1]octan-3-yl)methyl)-[1,1′-biphenyl]-4-yl)-1,1,1,3,3,3-hexafluoropropan-2-ol] | < 50 nM |
| CCc1cc(CN2CC3CCC(C2)N3S(C)(=O)=O)cc(F)c1-c1ccc(C(O)(C(F)(F)F)C(F)(F)F)cc1 [Example 16, 2-(2′-ethyl-6′-fluoro-4′-((8-(methylsulfonyl)-3,8-diazabicyclo[3.2.1]octan-3-yl)methyl)-[1,1′-biphenyl]-4-yl)-1,1,1,3,3,3-hexafluoropropan-2-ol] | < 50 nM |
| CCc1cc(CN2CC3CCC(C2)N3S(C)(=O)=O)cc(F)c1-c1ccc(C(O)(C(F)(F)F)C(F)(F)F)cc1F [Example 17, 2-(2′-ethyl-2,6′-difluoro-4′-((8-(methylsulfonyl)-3,8-diazabicyclo[3.2.1]octan-3-yl)methyl)-[1,1′-biphenyl]-4-yl)-1,1,1,3,3,3-hexafluoropropan-2-ol] | < 50 nM |
| CCc1cc(CN2CC3CCC(C2)N3S(C)(=O)=O)cc(F)c1-c1ccc(C(O)(C(F)(F)F)C(F)(F)F)cc1Cl [Example 18, 2-(2-chloro-2′-ethyl-6′-fluoro-4′-((8-(methylsulfonyl)-3,8-diazabicyclo[3.2.1]octan-3-yl)methyl)-[1,1′-biphenyl]-4-yl)-1,1,1,3,3,3-hexafluoropropan-2-ol] | < 50 nM |
| CCc1cc(CN2CC3CCC(C2)N3S(C)(=O)=O)c(F)cc1-c1ccc(C(O)(C(F)(F)F)C(F)(F)F)cc1Cl [Example 19, 2-(2-chloro-2′-ethyl-5′-fluoro-4′-((8-(methylsulfonyl)-3,8-diazabicyclo[3.2.1]octan-3-yl)methyl)-[1,1′-biphenyl]-4-yl)-1,1,1,3,3,3-hexafluoropropan-2-ol] | < 50 nM |
| Cc1cc(C(O)(C(F)(F)F)C(F)(F)F)ccc1-c1cc(F)c(CN2CC3CCC(C2)N3S(C)(=O)=O)cc1C(C)C [Example 20, 1,1,1,3,3,3-hexafluoro-2-(5′-fluoro-2′-isopropyl-2-methyl-4′-((8-(methylsulfonyl)-3,8-diazabicyclo[3.2.1]octan-3-yl)methyl)-[1,1′-biphenyl]-4-yl)propan-2-ol] | 50 to 250 nM |
| CC(C)c1cc(CN2CC3CCC(C2)N3S(C)(=O)=O)ccc1-c1ccc(C(O)(C(F)(F)F)C(F)(F)F)cc1F [Example 21] | 50 to 250 nM |
| CC(C)c1cc(CN2CC3CCC(C2)N3S(C)(=O)=O)ccc1-c1ccc(C(O)(C(F)(F)F)C(F)(F)F)cc1Cl [Example 22, 2-(2-chloro-2′-isopropyl-4′-((8-(methylsulfonyl)-3,8-diazabicyclo[3.2.1]octan-3-yl)methyl)-[1,1′-biphenyl]-4-yl)-1,1,1,3,3,3-hexafluoropropan-2-ol] | 50 to 250 nM |
| CCc1c(F)c(CN2CC3CCC(C2)N3S(C)(=O)=O)cc(F)c1-c1ccc(C(O)(C(F)(F)F)C(F)(F)F)cc1F [Example 23, 2-(2′-ethyl-2,3′,6′-trifluoro-4′-((8-(methylsulfonyl)-3,8-diazabicyclo[3.2.1]octan-3-yl)methyl)-[1,1′-biphenyl]-4-yl)-1,1,1,3,3,3-hexafluoropropan-2-ol] | < 50 nM |
| CCc1cc(CN2CC3CCC(C2)N3S(C)(=O)=O)ccc1-c1ccc(C(O)(C(F)(F)F)C(F)(F)F)cc1F [Example 24, 2-(2′-ethyl-2-fluoro-4′-((8-(methylsulfonyl)-3,8-diazabicyclo[3.2.1]octan-3-yl)methyl)-[1,1′-biphenyl]-4-yl)-1,1,1,3,3,3-hexafluoropropan-2-ol] | < 50 nM |
| CCc1cc(CN2CC3CCC(C2)N3S(C)(=O)=O)ccc1-c1ccc(C(O)(C(F)(F)F)C(F)(F)F)cc1CC [Example 25, 2-(2,2′-diethyl-4′-((8-(methylsulfonyl)-3,8-diazabicyclo[3.2.1]octan-3-yl)methyl)-[1,1′-biphenyl]-4-yl)-1,1,1,3,3,3-hexafluoropropan-2-ol] | < 50 nM |
